Reference: the NIST ThermoML archive (doi:10.1021/je900967j)

Assay: xn = mol fraction of the nth substance listed
Conditions: 298.15 K; 101 kPa; Liquid; Dispersion; x1 = 0

SMILES | binary diffusion coefficient [m2/s]
OCCc1ccccc1 [2-phenylethanol] + O | 7.92e-10
OCCCCCc1ccccc1 [1-pentanol, 5-phenyl-] + O | 5.32e-10
OCCCc1ccccc1 [3-phenyl-1-propanol] + O | 7.22e-10
OCc1ccccc1 [benzenemethanol] + O | 8.3e-10
OCCCCc1ccccc1 [4-phenyl-1-butanol] + O | 6.64e-10
